Test results: patent US12378231B2, “Small molecules as monoacylglycerol lipase (MAGL) inhibitors, compositions and use thereof” (APOGEE PHARMACEUTICALS, INC., priority 2023, dated 2025)
Where two headings read alike, the source gives them in different places.

Tests used:
human recombinant MAGL = human recombinant MAGL (Homo sapiens (Human), UniProt Q99685); assay: In vitro inhibition of human recombinant MAGL activity (Cayman inhibitor screening kit, 4-nitrophenylacetate hydrolysis); format: biochemical
Text: The inhibitory effect of the synthetic chemicals on activity of human recombinant MAGL was studied using commercial inhibitor screening kit (Cayman Chemical). […] The absorbance of the yellow product can be analyzed using the plate reader. […]

human recombinant FAAH = human recombinant FAAH (Homo sapiens (Human), UniProt O00519); assay: In vitro inhibition of human recombinant FAAH activity (Cayman FAAH inhibitor screening kit, AMC arachidonoyl amide hydrolysis); format: biochemical
Text: In brief, FAAH hydrolyzes AMC arachidonoyl amide resulting in the release of the fluorescent product, while the inhibitor will inhibit the FAAH activity and thus reduce the fluorescent signal.

[1] = human recombinant MAGL, read-out: Inhibition on MAGL activity (IC50)

Sequence of human recombinant FAAH (O00519 whole entry): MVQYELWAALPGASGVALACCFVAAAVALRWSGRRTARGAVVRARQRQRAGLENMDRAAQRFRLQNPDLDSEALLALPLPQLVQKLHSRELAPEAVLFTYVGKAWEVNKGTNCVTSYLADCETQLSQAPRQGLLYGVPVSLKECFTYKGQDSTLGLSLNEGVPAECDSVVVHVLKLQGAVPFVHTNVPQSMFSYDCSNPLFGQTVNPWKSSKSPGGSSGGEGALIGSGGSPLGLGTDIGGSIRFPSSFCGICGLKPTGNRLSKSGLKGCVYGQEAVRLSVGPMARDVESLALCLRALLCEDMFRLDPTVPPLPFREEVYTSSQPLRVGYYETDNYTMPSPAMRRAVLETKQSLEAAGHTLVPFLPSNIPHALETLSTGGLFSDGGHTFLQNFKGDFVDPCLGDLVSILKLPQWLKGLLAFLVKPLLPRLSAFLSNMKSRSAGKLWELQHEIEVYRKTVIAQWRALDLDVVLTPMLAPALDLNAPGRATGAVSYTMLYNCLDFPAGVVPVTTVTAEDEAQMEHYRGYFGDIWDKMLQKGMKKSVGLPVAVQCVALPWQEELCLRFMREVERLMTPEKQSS
Sequence of human recombinant MAGL (Q99685 whole entry): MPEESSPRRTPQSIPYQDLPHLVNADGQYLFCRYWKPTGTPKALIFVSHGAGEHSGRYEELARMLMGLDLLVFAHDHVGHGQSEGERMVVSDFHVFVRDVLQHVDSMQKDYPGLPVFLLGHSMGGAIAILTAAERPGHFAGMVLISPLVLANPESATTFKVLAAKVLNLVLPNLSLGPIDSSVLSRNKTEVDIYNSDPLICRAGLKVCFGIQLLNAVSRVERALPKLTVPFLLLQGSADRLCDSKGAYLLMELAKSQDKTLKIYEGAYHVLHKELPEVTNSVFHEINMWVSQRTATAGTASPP

Row | SMILES | IC50 (human recombinant MAGL) [µM] | IC50 (human recombinant FAAH) [µM] | IC50 (human recombinant MAGL; [1]) [µM]
1 | O=C(On1nnc2ccccc21)N1CCN(C(c2ccc3c(c2)COCO3)c2ccc3c(c2)COCO3)CC1 [Example 27, 1H-benzo[d][1,2,3]triazol-1-yl 4-(bis(4H-benzo[d][1,3]dioxin-6-yl)methyl)piperazine-1-carboxylate] | 0.01 to 0.1 | > 10 | 
2 | Cc1ncn(C(=O)N2CCN(C(c3ccc4c(c3)COCO4)c3ccc4c(c3)COCO4)CC2)n1 [Example 28, (4-(bis(4H-benzo[d][1,3]dioxin-6-yl)methyl)piperazin-1-yl)(3-methyl-1H-1,2,4-triazol-1-yl)methanone] |  | > 20 | 0.001 to 0.02
3 | O=C(Oc1c(F)c(F)c(F)c(F)c1F)N1CCN(C(c2ccc3c(c2)COCO3)c2ccc3c(c2)COCO3)CC1 [Example 29, pentafluorophenyl 4-(bis(4H-benzo[d][1,3]dioxin-6-yl)methyl)piperazine-1-carboxylate] |  | > 50 | > 0.1
4 | CC(C)=NOC(=O)N1CCN(C(c2ccc3c(c2)COCO3)c2ccc3c(c2)COCO3)CC1 [Example 30, propan-2-one O-(4-(bis(4H-benzo[d][1,3]dioxin-6-yl)methyl)piperazine-1-carbonyl) oxime] |  | > 50 | > 10
5 | O=C(N1CCN(C(c2ccc3c(c2)COCO3)c2ccc3c(c2)COCO3)CC1)n1ncc2ccccc21 [Example 35, (4-(bis(4H-benzo[d][1,3]dioxin-6-yl)methyl)piperazin-1-yl)(1H-indazol-1-yl)methanone] |  | > 50 | > 0.1
6 | N#Cc1ncn(C(=O)N2CCN(C(c3ccc4c(c3)COCO4)c3ccc4c(c3)COCO4)CC2)n1 [Example 36, 1-(4-(bis(4H-benzo[d][1,3]dioxin-6-yl)methyl)piperazine-1-carbonyl)-1H-1,2,4-triazole-3-carbonitrile] |  | > 10 | 0.01 to 0.1
7 | O=C(N1CCN(C(c2ccc3c(c2)COCO3)c2ccc3c(c2)COCO3)CC1)n1nnc2ccc(Br)cc21 [Example 37, (4-(bis(4H-benzo[d][1,3]dioxin-6-yl)methyl)piperazin-1-yl)(6-bromo-1H-benzo[d][1,2,3]triazol-1-yl)methanone] |  | > 50 | 0.001 to 0.01
8 | O=C(N1CCN(C(c2ccc3c(c2)COCO3)c2ccc3c(c2)COCO3)CC1)n1nnc2cc(Br)ccc21 [Example 38, (4-(bis(4H-benzo[d][1,3]dioxin-6-yl)methyl)piperazin-1-yl)(5-bromo-1H-benzo[d][1,2,3]triazol-1-yl)methanone] |  | > 50 | 0.01 to 0.1
9 | O=C(N1CCN(C(c2ccc3c(c2)COCO3)c2ccc3c(c2)COCO3)CC1)n1nnc2ccc(F)cc21 [Example 39, (4-(bis(4H-benzo[d][1,3]dioxin-6-yl)methyl)piperazin-1-yl)(6-fluoro-1H-benzo[d][1,2,3]triazol-1-yl)methanone] |  | ~50 | 0.001 to 0.01
10 | O=C(N1CCN(C(c2ccc3c(c2)COCO3)c2ccc3c(c2)COCO3)CC1)n1nnc2cc(F)ccc21 [Example 40, (4-(bis(4H-benzo[d][1,3]dioxin-6-yl)methyl)piperazin-1-yl)(5-fluoro-1H-benzo[d][1,2,3]triazol-1-yl)methanone] |  | 1 to 20 | 0.01 to 0.1
11 | O=C(N1CCN(C(c2ccc3c(c2)COCO3)c2ccc3c(c2)COCO3)CC1)n1nnc2c(Cl)cc(C(F)(F)F)cc21 [Example 42, (4-(bis(4H-benzo[d][1,3]dioxin-6-yl)methyl)piperazin-1-yl)(4-chloro-6-(trifluoromethyl)-1H-benzo[d][1,2,3]triazol-1-yl)methanone] |  | > 20 | 0.001 to 0.01
12 | O=C(Nc1cccnc1)N1CCN(C(c2ccc3c(c2)COCO3)c2ccc3c(c2)COCO3)CC1 [Example 43, 4-(bis(4H-benzo[d][1,3]dioxin-6-yl)methyl)-N-(pyridin-3-yl)piperazine-1-carboxamide] |  | > 50 | > 0.1
13 | O=C(N1CCN(C(c2ccc3c(c2)COCO3)c2ccc3c(c2)COCO3)CC1)n1nnc2ccc(C(F)(F)F)cc21 [Example 44, (4-(bis(4H-benzo[d][1,3]dioxin-6-yl)methyl)piperazin-1-yl)(6-(trifluoromethyl)-1H-benzo[d][1,2,3]triazol-1-yl)methanone] |  | > 10 | 0.001 to 0.01
14 | O=C(N1CCN(C(c2ccc3c(c2)COCO3)c2ccc3c(c2)COCO3)CC1)n1nnc2cc(C(F)(F)F)ccc21 [Example 45, (4-(bis(4H-benzo[d][1,3]dioxin-6-yl)methyl)piperazin-1-yl)(5-(trifluoromethyl)-1H-benzo[d][1,2,3]triazol-1-yl)methanone] |  | > 1 | 0.01 to 0.1
15 | O=C(N1CCN(C(c2ccc3c(c2)COCO3)c2ccc3c(c2)COCO3)CC1)n1nnc2cc3c(cc21)OCCO3 [Example 46, (4-(bis(4H-benzo[d][1,3]dioxin-6-yl)methyl)piperazin-1-yl)(6,7-dihydro-1H-[1,4]dioxino[2′,3′:4,5]benzo[1,2-d][1,2,3]triazol-1-yl)methanone] |  | > 10 | 0.01 to 0.1
16 | N#Cc1ccc2nnn(C(=O)N3CCN(C(c4ccc5c(c4)COCO5)c4ccc5c(c4)COCO5)CC3)c2c1 [Example 48, 1-(4-(bis(4H-benzo[d][1,3]dioxin-6-yl)methyl)piperazine-1-carbonyl)-1H-benzo[d][1,2,3]triazole-6-carbonitrile] |  | > 20 | 0.001 to 0.01
17 | N#Cc1ccc2c(c1)nnn2C(=O)N1CCN(C(c2ccc3c(c2)COCO3)c2ccc3c(c2)COCO3)CC1 [Example 49, 1-(4-(bis(4H-benzo[d][1,3]dioxin-6-yl)methyl)piperazine-1-carbonyl)-1H-benzo[d][1,2,3]triazole-5-carbonitrile] |  | > 20 | 0.01 to 0.1
18 | O=C(N1CCN(C(c2ccc3c(c2)COCO3)c2ccc3c(c2)COCO3)CC1)n1nc2ccccn2c1=O [Example 50, 2-(4-(bis(4H-benzo[d][1,3]dioxin-6-yl)methyl)piperazine-1-carbonyl)-[1,2,4]triazolo[4,3-a]pyridin-3(2H)-one] |  | > 50 | > 0.1
19 | N#Cc1ccc2nnn(C(=O)N3CCCN(C(c4ccc5c(c4)COCO5)c4ccc5c(c4)COCO5)CC3)c2c1 [Example 51, 1-(4-(bis(4H-benzo[d][1,3]dioxin-6-yl)methyl)-1,4-diazepane-1-carbonyl)-1H-benzo[d][1,2,3]triazole-6-carbonitrile] |  | > 10 | 0.01 to 0.1
20 | O=C(C1CCN(C(c2ccc3c(c2)COCO3)c2ccc3c(c2)COCO3)CC1)n1nnc2ccccc21 [Example 52, (1H-benzo[d][1,2,3]triazol-1-yl)(1-(bis(4H-benzo[d][1,3]dioxin-6-yl)methyl)piperidin-4-yl)methanone] |  | > 50 | > 0.1
21 | O=C(OC(C(F)(F)F)C(F)(F)F)C1CCN(C(c2ccc3c(c2)COCO3)c2ccc3c(c2)COCO3)CC1 [Example 53, 1,1,1,3,3,3-hexafluoropropan-2-yl 1-(bis(4H-benzo[d][1,3]dioxin-6-yl)methyl)piperidine-4-carboxylate] |  | > 50 | > 0.1
22 | O=C(Oc1c(F)c(F)c(F)c(F)c1F)C1CCN(C(c2ccc3c(c2)COCO3)c2ccc3c(c2)COCO3)CC1 [Example 54, pentafluorophenyl 1-(bis(4H-benzo[d][1,3]dioxin-6-yl)methyl)piperidine-4-carboxylate] |  | > 50 | > 0.1
23 | CN(CCOC(c1ccc2c(c1)COCO2)c1ccc2c(c1)COCO2)C(=O)n1nnc2ccc(C#N)cc21 [Example 55, N-(2-(bis(4H-benzo[d][1,3]dioxin-6-yl)methoxy)ethyl)-6-cyano-N-methyl-1H-benzo[d][1,2,3]triazole-1-carboxamide] |  | 1 to 10 | 0.001 to 0.01
24 | N#Cc1ccc2nnn(C(=O)N3CCC(OC(c4ccc5c(c4)COCO5)c4ccc5c(c4)COCO5)CC3)c2c1 [Example 56, 1-(4-(bis(4H-benzo[d][1,3]dioxin-6-yl)methoxy)piperidine-1-carbonyl)-1H-benzo[d][1,2,3]triazole-6-carbonitrile] |  | > 10 | 0.001 to 0.01
25 | N#Cc1ccc2c(c1)nnn2C(=O)N1CCC(OC(c2ccc3c(c2)COCO3)c2ccc3c(c2)COCO3)CC1 [Example 57, 1-(4-(bis(4H-benzo[d][1,3]dioxin-6-yl)methoxy)piperidine-1-carbonyl)-1H-benzo[d][1,2,3]triazole-5-carbonitrile] |  | 0.1 to 1 | 0.001 to 0.01
26 | N#Cc1ccc2nnn(C(=O)N3CC4(CC(OC(c5ccc6c(c5)COCO6)c5ccc6c(c5)COCO6)C4)C3)c2c1 [Example 59, 1-(6-(bis(4H-benzo[d][1,3]dioxin-6-yl)methoxy)-2-azaspiro[3.3]heptane-2-carbonyl)-1H-benzo[d][1,2,3]triazole-6-carbonitrile] |  | ~10 | 0.01 to 0.1
27 | N#Cc1ccc2c(c1)nnn2C(=O)N1CC2(CC(OC(c3ccc4c(c3)COCO4)c3ccc4c(c3)COCO4)C2)C1 [Example 60, 1-(6-(bis(4H-benzo[d][1,3]dioxin-6-yl)methoxy)-2-azaspiro[3.3]heptane-2-carbonyl)-1H-benzo[d][1,2,3]triazole-5-carbonitrile] |  | < 10 | 0.01 to 0.1
28 | N#Cc1ccc2nnn(C(=O)N3CCC(N(c4ccc(F)cc4)c4ccc(F)cc4)CC3)c2c1 [Example 61, 1-(4-(bis(4-fluorophenyl)amino)piperidine-1-carbonyl)-1H-benzo[d][1,2,3]triazole-6-carbonitrile] |  | 0.1 to 1 | 0.001 to 0.01
29 | N#Cc1ccc2nnn(C(=O)N3CCC(N(c4ccc(F)cc4)c4ccc5c(c4)OCO5)CC3)c2c1 [Example 63, 1-(4-(benzo[d][1,3]dioxol-5-yl(4-fluorophenyl)amino)piperidine-1-carbonyl)-1H-benzo[d][1,2,3]triazole-6-carbonitrile] |  | 0.1 to 1 | 0.001 to 0.01
